Assay results reported in PubChem BioAssay (NCI).
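Interpolation was linear, between the two tested concentrations surrounding the appropriate level; five concentrations were tested over 48 hours in 96-well plates. TGI: total growth inhibition.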

What was measured:
Assay in all cases: DTP human tumour cell line panel, 48 h
786-0 renal = tested on: 786-0 renal
A498 renal = tested on: A498 renal
A549 NSCLC = tested on: A549 NSCLC
ACHN renal = tested on: ACHN renal
CAKI-1 renal = tested on: CAKI-1 renal
CCRF-CEM leukemia = tested on: CCRF-CEM leukemia
DLD-1 colon = tested on: DLD-1 colon
DMS 114 small cell lung = tested on: DMS 114 small cell lung
DMS 273 small cell lung = tested on: DMS 273 small cell lung
EKVX NSCLC = tested on: EKVX NSCLC
HCC-2998 colon = tested on: HCC-2998 colon
HCT-116 colon = tested on: HCT-116 colon
HCT-15 colon = tested on: HCT-15 colon
HOP-18 NSCLC = tested on: HOP-18 NSCLC
HOP-62 NSCLC = tested on: HOP-62 NSCLC
HOP-92 NSCLC = tested on: HOP-92 NSCLC
HT29 colon = tested on: HT29 colon
IGROV1 ovarian = tested on: IGROV1 ovarian
K-562 leukemia = tested on: K-562 leukemia
KM12 colon = tested on: KM12 colon
KM20L2 colon = tested on: KM20L2 colon
LXFL 529 NSCLC = tested on: LXFL 529 NSCLC
M14 melanoma = tested on: M14 melanoma
M19-MEL melanoma = tested on: M19-MEL melanoma
MALME-3M melanoma = tested on: MALME-3M melanoma
MOLT-4 leukemia = tested on: MOLT-4 leukemia
NCI-H226 lung = tested on: NCI-H226 lung
NCI-H23 lung = tested on: NCI-H23 lung
NCI-H460 lung = tested on: NCI-H460 lung
NCI-H522 lung = tested on: NCI-H522 lung
OVCAR-3 ovarian = tested on: OVCAR-3 ovarian
OVCAR-4 ovarian = tested on: OVCAR-4 ovarian
OVCAR-5 ovarian = tested on: OVCAR-5 ovarian
OVCAR-8 ovarian = tested on: OVCAR-8 ovarian
RPMI-8226 leukemia = tested on: RPMI-8226 leukemia
RXF 393 renal = tested on: RXF 393 renal
RXF-631 renal = tested on: RXF-631 renal
SF-268 CNS = tested on: SF-268 CNS
SF-295 CNS = tested on: SF-295 CNS
SF-539 CNS = tested on: SF-539 CNS
SK-MEL-2 melanoma = tested on: SK-MEL-2 melanoma
SK-MEL-28 melanoma = tested on: SK-MEL-28 melanoma
SK-MEL-5 melanoma = tested on: SK-MEL-5 melanoma
SK-OV-3 ovarian = tested on: SK-OV-3 ovarian
SN12C renal = tested on: SN12C renal
SNB-19 CNS = tested on: SNB-19 CNS
SNB-75 CNS = tested on: SNB-75 CNS
SNB-78 CNS = tested on: SNB-78 CNS
SR leukemia = tested on: SR leukemia
SW-620 colon = tested on: SW-620 colon
TK-10 renal = tested on: TK-10 renal
U251 CNS = tested on: U251 CNS
UACC-257 melanoma = tested on: UACC-257 melanoma
UACC-62 melanoma = tested on: UACC-62 melanoma
UO-31 renal = tested on: UO-31 renal
XF 498 CNS = tested on: XF 498 CNS
COLO 205 colon = tested on: COLO 205 colon
HL-60(TB) leukemia = tested on: HL-60(TB) leukemia
LOX IMVI melanoma = tested on: LOX IMVI melanoma

CC12CCC[C@@](C)(C(=O)OC3OC(CO)C(O)C(O)C3O)[C@H]1CCC13CC4CC(OC4(CO)[C@H]1O)[C@@H]23 (stereo not given in full)
TGI (786-0 renal): > 100 µM | TGI (A498 renal): > 100 µM | TGI (A549 NSCLC): > 100 µM | TGI (ACHN renal): > 100 µM | TGI (CAKI-1 renal): > 100 µM | TGI (CCRF-CEM leukemia): > 100 µM | TGI (DLD-1 colon): > 100 µM | TGI (DMS 114 small cell lung): 87.9 µM | TGI (DMS 273 small cell lung): > 100 µM | TGI (EKVX NSCLC): > 100 µM | TGI (HCC-2998 colon): > 100 µM | TGI (HCT-116 colon): > 100 µM | TGI (HCT-15 colon): > 100 µM | TGI (HOP-18 NSCLC): > 100 µM | TGI (HOP-62 NSCLC): > 100 µM | TGI (HOP-92 NSCLC): > 100 µM | TGI (HT29 colon): > 100 µM | TGI (IGROV1 ovarian): > 100 µM | TGI (K-562 leukemia): > 100 µM | TGI (KM12 colon): > 100 µM | TGI (KM20L2 colon): > 100 µM | TGI (LXFL 529 NSCLC): > 100 µM | TGI (M14 melanoma): > 100 µM | TGI (M19-MEL melanoma): > 100 µM | TGI (MALME-3M melanoma): > 100 µM | TGI (MOLT-4 leukemia): > 100 µM | TGI (NCI-H226 lung): > 100 µM | TGI (NCI-H23 lung): > 100 µM | TGI (NCI-H460 lung): > 100 µM | TGI (NCI-H522 lung): > 100 µM | TGI (OVCAR-3 ovarian): > 100 µM | TGI (OVCAR-4 ovarian): > 100 µM | TGI (OVCAR-5 ovarian): > 100 µM | TGI (OVCAR-8 ovarian): > 100 µM | TGI (RPMI-8226 leukemia): > 100 µM | TGI (RXF 393 renal): > 100 µM | TGI (RXF-631 renal): > 100 µM | TGI (SF-268 CNS): > 100 µM | TGI (SF-295 CNS): > 100 µM | TGI (SF-539 CNS): > 100 µM | TGI (SK-MEL-2 melanoma): > 100 µM | TGI (SK-MEL-28 melanoma): > 100 µM | TGI (SK-MEL-5 melanoma): > 100 µM | TGI (SK-OV-3 ovarian): > 100 µM | TGI (SN12C renal): > 100 µM | TGI (SNB-19 CNS): > 100 µM | TGI (SNB-75 CNS): > 100 µM | TGI (SNB-78 CNS): > 100 µM | TGI (SR leukemia): > 100 µM | TGI (SW-620 colon): 31 µM | TGI (TK-10 renal): > 100 µM | TGI (U251 CNS): > 100 µM | TGI (UACC-257 melanoma): > 100 µM | TGI (UACC-62 melanoma): > 100 µM | TGI (UO-31 renal): > 100 µM | TGI (XF 498 CNS): > 100 µM

CCOC(=O)/C(=C/c1ccc(C#N)cc1)N(CC)CC
TGI (786-0 renal): > 100 µM | TGI (A498 renal): > 100 µM | TGI (A549 NSCLC): > 100 µM | TGI (ACHN renal): > 100 µM | TGI (CAKI-1 renal): > 100 µM | TGI (CCRF-CEM leukemia): > 100 µM | TGI (COLO 205 colon): > 100 µM | TGI (DLD-1 colon): > 100 µM | TGI (DMS 114 small cell lung): > 100 µM | TGI (EKVX NSCLC): > 100 µM | TGI (HCC-2998 colon): > 100 µM | TGI (HCT-116 colon): > 100 µM | TGI (HCT-15 colon): > 100 µM | TGI (HL-60(TB) leukemia): > 100 µM | TGI (HOP-18 NSCLC): > 100 µM | TGI (HOP-62 NSCLC): > 100 µM | TGI (HOP-92 NSCLC): > 100 µM | TGI (HT29 colon): > 100 µM | TGI (IGROV1 ovarian): > 100 µM | TGI (K-562 leukemia): > 100 µM | TGI (KM12 colon): > 100 µM | TGI (LOX IMVI melanoma): > 100 µM | TGI (LXFL 529 NSCLC): > 100 µM | TGI (M14 melanoma): > 100 µM | TGI (M19-MEL melanoma): > 100 µM | TGI (MALME-3M melanoma): > 100 µM | TGI (MOLT-4 leukemia): > 100 µM | TGI (NCI-H226 lung): > 100 µM | TGI (NCI-H23 lung): > 100 µM | TGI (NCI-H460 lung): > 100 µM | TGI (NCI-H522 lung): > 100 µM | TGI (OVCAR-4 ovarian): > 100 µM | TGI (OVCAR-5 ovarian): > 100 µM | TGI (OVCAR-8 ovarian): > 100 µM | TGI (RPMI-8226 leukemia): > 100 µM | TGI (RXF-631 renal): > 100 µM | TGI (SF-268 CNS): > 100 µM | TGI (SF-295 CNS): 30 µM | TGI (SF-539 CNS): > 100 µM | TGI (SK-MEL-2 melanoma): > 100 µM | TGI (SK-MEL-28 melanoma): > 100 µM | TGI (SK-MEL-5 melanoma): > 100 µM | TGI (SK-OV-3 ovarian): > 100 µM | TGI (SN12C renal): > 100 µM | TGI (SNB-75 CNS): > 100 µM | TGI (SNB-78 CNS): > 100 µM | TGI (SR leukemia): > 100 µM | TGI (SW-620 colon): > 100 µM | TGI (TK-10 renal): > 100 µM | TGI (U251 CNS): > 100 µM | TGI (UACC-257 melanoma): > 100 µM | TGI (UACC-62 melanoma): > 100 µM | TGI (UO-31 renal): > 100 µM | TGI (XF 498 CNS): > 100 µM

Cc1ccccc1C(C#N)C(=O)C(=O)Nc1cccc(Cl)c1 (stereo not given)
TGI (786-0 renal): > 100 µM | TGI (A498 renal): > 100 µM | TGI (A549 NSCLC): > 100 µM | TGI (ACHN renal): > 100 µM | TGI (CAKI-1 renal): > 100 µM | TGI (CCRF-CEM leukemia): > 100 µM | TGI (COLO 205 colon): > 100 µM | TGI (DLD-1 colon): > 100 µM | TGI (DMS 114 small cell lung): > 100 µM | TGI (DMS 273 small cell lung): > 100 µM | TGI (EKVX NSCLC): > 100 µM | TGI (HCC-2998 colon): > 100 µM | TGI (HCT-116 colon): > 100 µM | TGI (HCT-15 colon): > 100 µM | TGI (HL-60(TB) leukemia): > 100 µM | TGI (HOP-62 NSCLC): > 100 µM | TGI (HOP-92 NSCLC): > 100 µM | TGI (HT29 colon): > 100 µM | TGI (IGROV1 ovarian): > 100 µM | TGI (K-562 leukemia): > 100 µM | TGI (KM12 colon): > 100 µM | TGI (KM20L2 colon): > 100 µM | TGI (LOX IMVI melanoma): 34.1 µM | TGI (M14 melanoma): > 100 µM | TGI (M19-MEL melanoma): 95.5 µM | TGI (MALME-3M melanoma): > 100 µM | TGI (MOLT-4 leukemia): > 100 µM | TGI (NCI-H226 lung): > 100 µM | TGI (NCI-H23 lung): > 100 µM | TGI (NCI-H460 lung): > 100 µM | TGI (NCI-H522 lung): > 100 µM | TGI (OVCAR-3 ovarian): > 100 µM | TGI (OVCAR-5 ovarian): > 100 µM | TGI (OVCAR-8 ovarian): > 100 µM | TGI (RPMI-8226 leukemia): 62.1 µM | TGI (RXF 393 renal): > 100 µM | TGI (RXF-631 renal): > 100 µM | TGI (SF-268 CNS): > 100 µM | TGI (SF-295 CNS): > 100 µM | TGI (SF-539 CNS): > 100 µM | TGI (SK-MEL-2 melanoma): > 100 µM | TGI (SK-MEL-28 melanoma): > 100 µM | TGI (SK-MEL-5 melanoma): > 100 µM | TGI (SK-OV-3 ovarian): > 100 µM | TGI (SN12C renal): > 100 µM | TGI (SNB-19 CNS): > 100 µM | TGI (SNB-75 CNS): > 100 µM | TGI (SNB-78 CNS): > 100 µM | TGI (SW-620 colon): 31.6 µM | TGI (TK-10 renal): > 100 µM | TGI (U251 CNS): > 100 µM | TGI (UACC-257 melanoma): > 100 µM | TGI (UACC-62 melanoma): > 100 µM | TGI (UO-31 renal): > 100 µM | TGI (XF 498 CNS): > 100 µM
